These results are taken from patent publication US8871767B2, “2-arylimidazo[1,2-B]pyridazine, 2-phenylimidazo[1,2-A]pyridine, and 2-phenylimidazo[1,2-A]pyrazine derivatives” (Hengrui (USA) Ltd., priority 2010, dated 2014).

The test system of assay [1] is Hedgehog pathway activation (GLi-luciferase reporter) in Shh Light II reporter cells. As to the kind of experiment: Hedgehog pathway activation on Shh Light II reporter cells measured by luciferase activity. Format: cell-based. The essentials:
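Shh Light II reporter cells carrying a hedgehog-responsive GLi-luciferase reporter were stimulated either with 500 nM SAG, a direct Smoothened agonist, or with conditioned media containing human Sonic Hedgehog (hShh). Test compounds were evaluated for blocking this pathway activation, quantified by luciferase activity. Cell viability was monitored in parallel with the Celltiter-Blue® assay.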

Assay [2] deals with Hedgehog pathway activation on 10T1/2/Smo#3 cells (C3H10T1/2 cells transfected with human Smoothened receptor). The experiment in a line: Hedgehog pathway activation on 10T1/2/Smo#3 cells measured by ALP activity. Format: cell-based. Put shortly: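 Inhibition of alkaline phosphatase induction, read fluorometrically from 4-methylumbelliferyl phosphate conversion, gave IC50 values; CellTiter-Blue tracked viability in parallel. Cells were the human Smo-transfected 10T1/2/Smo#3 pool, stimulated by 10-20% hShh conditioned medium or the Smo agonist SAG (500 nM).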

Setting [3] is: Mus musculus, Shh Light II, SAG activation (500 nM SAG), read-out: Shh Light II luciferase activity (SAG activation).
[4] abbreviates: Mus musculus, Shh Light II, hShh activation, read-out: Shh Light II luciferase activity (hShh activation).
Where [5] appears, read: Mus musculus, C3H 10T1/2, 10T1/2/Smo#3 cells, hShh activation, ALP activity, read-out: 10T1/2/Smo#3 ALP activity (hShh Activation).
Setting [6] is: Mus musculus, Shh Light II, hShh activation, read-out: Shh (IC50, inhibition of Hedgehog pathway activation).
The mark [7] stands for this setting: Mus musculus, C3H 10T1/2, 10T1/2/Smo#3 cells, measured by ALP activity, read-out: ALP (IC50, inhibition of Hedgehog pathway activation).

Read-outs that look alike come from different tables or passages of the source.

Take `CCc1ccc(-c2cn3nc(-c4cccnc4C(F)(F)F)ccc3n2)cc1NC(=O)C1(C)CC1` [Example 633]: the IC50 in assay [1] (setting [3]), in assay [1] (setting [4]) and in assay [2] (setting [5]) was below 300 nM in each case.

Consider `CN[C@@H]1CCN(c2ccc3nc(-c4ccc(C(F)(F)F)c(NC(=O)C(C)(C)C)c4)cn3n2)C1` [Example 634, (R)—N-(5-(6-(3-(methylamino)pyrrolidin-1-yl)imidazo[1,2-b]pyridazin-2-yl)-2-(trifluoromethyl)phenyl)pivalamide], for which the IC50 is 120 nM in assay [1] (setting [6]) and 98 nM in assay [2] (setting [7]).

For `CCN[C@@H]1CCN(c2ccc3nc(-c4ccc(C(F)(F)F)c(NC(=O)C(C)(C)C)c4)cn3n2)C1` [Example 635, (R)—N-(5-(6-(3-(ethylamino)pyrrolidin-1-yl)imidazo[1,2-b]pyridazin-2-yl)-2-(trifluoromethyl)phenyl)pivalamide], the values for the IC50 in assay [1] (setting [6]) and in assay [2] (setting [7]) were 110 nM and 159 nM, respectively.

With `CCc1ccc(-c2cn3nc(-c4cccnc4C(F)(F)F)ccc3n2)cc1NC(=O)C1(C)CC1` [Example 636, N-(2-ethyl-5-(6-(2-(trifluoromethy)pyridin-3-y)imidazo[1,2-b]pyridazin-2-yl)phenyl)-1-methylcyclopropanecarboxamide], the IC50 in assay [1] (hShh activation, read-out: Shh (IC50, inhibition of Hedgehog pathway activation)) came out at 131 nM; in assay [2] (10T1/2/Smo#3 cells, measured by ALP activity, read-out: ALP (IC50, inhibition of Hedgehog pathway activation)) it was 35 nM.

Consider `Cc1ccc(-c2cn3nc(N4CCC(N(C)C(=O)C(N)C(C)C)C4)ccc3n2)cc1NC(=O)C(C)(C)C` (stereo not shown) [Example 637, 2-amino-N,3-dimethyl-N-(1-(2-(4-methyl-3-pivalamidophenyl)imidazo[1,2-b]pyridazin-6-yl)pyrrolidin-3-yl)butanamide], for which the values for the IC50 in assay [1] (setting [6]) and in assay [2] (setting [7]) were 2180 nM and 418 nM, respectively.

`Cc1ccc(-c2cn3nc(-c4cccnc4C(F)(F)F)ccc3n2)cc1NC(=O)C(C)(C)C(F)(F)F` [Example 638, 3,3,3-trifluoro-2,2-dimethyl-N-(2-methyl-5-(6-(2-(trifluoromethyl)pyridin-3-yl)imidazo[1,2-b]pyridazin-2-yl)phenyl)propanamide]: the IC50 in assay [1] (setting [6]) and in assay [2] (setting [7]) was 20 nM each time.

Take `Cc1cc(Cl)c(-c2cn3nc(-c4cccnc4C(F)(F)F)ccc3n2)cc1NC(=O)C(C)(C)C` [Example 639, N-(4-chloro-2-methyl-5-(6-(2-(trifluoromethyl)pyridin-3-yl)imidazo[1,2-b]pyridazin-2-yl)phenyl)pivalamide]: the IC50 in assay [1] (setting [3]) is below 300 nM; in assay [1] (setting [6]) it was 30 nM; in assay [1] (setting [4]) it was below 300 nM; in assay [2] (setting [5]) it was below 300 nM; in assay [2] (setting [7]), 55 nM.

In the case of `Cc1cc(Cl)c(-c2cn3nc(N4CC[C@@H](O)C4)ccc3n2)cc1NC(=O)C(C)(C)C` [Example 640, (R)—N-(4-chloro-5-(6-(3-hydroxypyrrolidin-1-yl)imidazo[1,2-b]pyridazin-2-yl)-2-methylphenyl)pivalamide], the IC50 in assay [1] (setting [6]) was found to be 107 nM; in assay [2] (setting [7]), 138 nM.

For the compound `Cc1ccc(-c2nc3ccc(-c4cccnc4C(F)(F)F)nn3c2Cl)cc1NC(=O)C(C)(C)C` [Example 641, N-(5-(3-chloro-6-(2-(trifluoromethyl)pyridin-3-yl)imidazo[1,2-b]pyridazin-2-yl)-2-methylphenyl)pivalamide], the figures for the IC50 in assay [1] (setting [6]) and in assay [2] (setting [7]) were 76 nM and 34 nM, respectively.

In the case of `CC(C)(C)C(=O)Nc1cc(-c2cn3nc(-c4cccnc4C(F)(F)F)ccc3n2)ccc1Cl` [Example 642, N-(2-chloro-5-(6-(2-(trifluoromethyl)pyridin-3-yl)imidazo[1,2-b]pyridazin-2-yl)phenyl)pivalamide], the IC50 in assay [1] (setting [3]) is below 300 nM; in assay [1] (setting [6]), 13 nM; in assay [1] (setting [4]) it was below 300 nM; in assay [2] (setting [5]), below 300 nM; in assay [2] (setting [7]), 6 nM.

Take `CC(C)(C)C(=O)Nc1cc(-c2cn3nc(N4CC[C@@H](O)C4)ccc3n2)ccc1Cl` [Example 643, (R)—N-(2-chloro-5-(6-(3-hydroxypyrrolidin-1-yl)imidazo[1,2-b]pyridazin-2-yl)phenyl)pivalamide]: the IC50 in assay [1] (setting [6]) was found to be 146 nM; in assay [2] (setting [7]), 23 nM.

As for `CC(C)(C)C(=O)Nc1cc(-c2cn3nc(-c4cccnc4C(F)(F)F)ccc3n2)ccc1C1CC1` [Example 644, N-(2-cyclopropyl-5-(6-(2-(trifluoromethyl)pyridin-3-yl)imidazo[1,2-b]pyridazin-2-yl)phenyl)pivalamide], the IC50 in assay [1] (setting [6]) is 72 nM; in assay [2] (setting [7]) it was 15 nM.

On to `Cc1ccc(-c2cn3nc(-c4cccnc4C(F)(F)F)ccc3n2)cc1NC(=O)C1CCCN1` (stereo not shown) [Example 645, N-(2-methyl-5-(6-(2-(trifluoromethyl)pyridin-3-yl)imidazo[1,2-b]pyridazin-2-yl)phenyl)pyrrolidine-2-carboxamide], for which the values for the IC50 in assay [1] (setting [6]) and in assay [2] (setting [7]) were 589 nM and 155 nM, respectively.

`Cc1ccc(-c2cn3nc(-c4cccnc4C(F)(F)F)ccc3n2)cc1NC(=O)NC(C)(C)C` [Example 646, 1-tert-butyl-3-(2-methyl-5-(6-(2-(trifluoromethyl)pyridin-3-yl)imidazo[1,2-b]pyridazin-2-yl)phenyl)urea]: the IC50 is 300 to 3000 nM in assay [1] (setting [3]); 38 nM in assay [1] (setting [6]); below 300 nM in assay [1] (setting [4]); below 300 nM in assay [2] (setting [5]); 16 nM in assay [2] (setting [7]).

As for `Cc1ccc(-c2cn3nc(-c4cccnc4C(F)(F)F)ccc3n2)cc1NC(=O)C1CCCN1C` (stereo not shown) [Example 647, 1-methyl-N-(2-methyl-5-(6-(2-(trifluoromethyl)pyridin-3-yl)imidazo[1,2-b]pyridazin-2-yl)phenyl)pyrrolidine-2-carboxamide], the IC50 in assay [1] (setting [6]) came out at 186 nM; in assay [2] (setting [7]), 94 nM.

For `CCN1CCCC1C(=O)Nc1cc(-c2cn3nc(-c4cccnc4C(F)(F)F)ccc3n2)ccc1C` (stereo not shown) [Example 648, 1-ethyl-N-(2-methyl-5-(6-(2-(trifluoromethyl)pyridin-3-yl)imidazo[1,2-b]pyridazin-2-yl)phenyl)pyrrolidine-2-carboxamide], the IC50 in assay [1] (setting [6]) was found to be 400 nM; in assay [2] (setting [7]), 373 nM.

Regarding `Cc1cc(F)c(-c2cn3nc(-c4cccnc4C(F)(F)F)ccc3n2)cc1NC(=O)C(C)(C)C` [Example 649, N-(4-fluoro-2-methyl-5-(6-(2-(trifluoromethyl)pyridin-3-yl)imidazo[1,2-b]pyridazin-2-yl)phenyl)pivalamide], the IC50 in assay [1] (setting [6]) turned out to be 80 nM; in assay [2] (setting [7]) it was 50 nM.

As for `CC(C)(C)C(=O)Nc1cc(-c2cn3nc(-c4cccnc4C(F)(F)F)ccc3n2)c(F)cc1Cl` [Example 650, N-(2-chloro-4-fluoro-5-(6-(2-(trifluoromethyl)pyridin-3-yl)imidazo[1,2-b]pyridazin-2-yl)phenyl)pivalamide], the IC50 in assay [1] (setting [3]) was below 300 nM; in assay [1] (setting [6]) it was 100 nM; in assay [1] (setting [4]) it was below 300 nM; in assay [2] (setting [5]), below 300 nM; in assay [2] (setting [7]), 25 nM.

With `Cc1ccc(-c2cn3nc(-c4cccnc4C(F)(F)F)ccc3n2)cc1NC(=O)NC1CC1` [Example 651, 1-cyclopropyl-3-(2-methyl-5-(6-(2-(trifluoromethyl)pyridin-3-yl)imidazo[1,2-b]pyridazin-2-yl)phenyl)urea], the IC50 is 139 nM in assay [1] (setting [6]) and 127 nM in assay [2] (setting [7]).

Take `CC(C)(C)C(=O)Nc1cc(-c2cn3nc(-c4cccnc4C(F)(F)F)ccc3n2)c(F)cc1F` [Example 652, N-(2,4-difluoro-5-(6-(2-(trifluoromethyl)pyridin-3-yl)imidazo[1,2-b]pyridazin-2-yl)phenyl)pivalamide]: the IC50 in assay [1] (setting [6]) stood at 34 nM; in assay [2] (setting [7]), 36 nM.

As for `CC1(C(=O)Nc2cc(-c3cn4nc(-c5cccnc5C(F)(F)F)ccc4n3)ccc2Cl)CC1` [Example 653, N-(2-chloro-5-(6-(2-(trifluoromethyl)pyridin-3-yl)imidazo[1,2-b]pyridazin-2-yl)phenyl)-1-methylcyclopropanecarboxamide], the IC50 in assay [1] (setting [6]) came to 10 nM; in assay [2] (setting [7]) it was 80 nM.

As to `O=C(Nc1cc(-c2cn3nc(-c4cccnc4C(F)(F)F)ccc3n2)ccc1Cl)NC1CC1` [Example 654, 1-(2-chloro-5-(6-(2-(trifluoromethyl)pyridin-3-yl)imidazo[1,2-b]pyridazin-2-yl)phenyl)-3-cyclopropylurea], the figures for the IC50 in assay [1] (setting [6]) and in assay [2] (setting [7]) were 228 nM and 764 nM, respectively.

On to `CCN(CC)C(=O)Nc1cc(-c2cn3nc(-c4cccnc4C(F)(F)F)ccc3n2)ccc1Cl` [Example 655, 3-(2-chloro-5-(6-(2-(trifluoromethyl)pyridin-3-yl)imidazo[1,2-b]pyridazin-2-yl)phenyl)-1,1-diethylurea], for which the IC50 was below 300 nM in assay [1] (setting [3]); 23 nM in assay [1] (setting [6]); below 300 nM in assay [1] (setting [4]); below 300 nM in assay [2] (setting [5]); 70 nM in assay [2] (setting [7]).

On to `O=C(Nc1cc(-c2cn3nc(-c4cccnc4C(F)(F)F)ccc3n2)ccc1Cl)N1CCCC1` [Example 656, N-(2-chloro-5-(6-(2-(trifluoromethyl)pyridin-3-yl)imidazo[1,2-b]pyridazin-2-yl)phenyl)pyrrolidine-1-carboxamide], for which the IC50 in assay [1] (setting [6]) was 38 nM; in assay [2] (setting [7]) it was 117 nM.
